Test results taken from patent US9512128B2 (BAYER CROPSCIENCE AG, priority 2012, dated 2016).
Where two headings read alike, the source gives them in different places.

Assays:
[1] = system: larvae of the mustard beetle (Phaedon cochleariae); assay: Phaedon cochleariae spray test (PHAECO); format: in vivo; conditions: application rate 500 g/ha, after 7 days, Chinese cabbage leaf discs
Protocol: 2. Phaedon cochleariae Spray Test (PHAECO)
(§1) • Solvents: 78.0 parts by weight of acetone • 1.5 part by weight of dimethylformamide • Emulsifier: 0.5 part by weight of alkylaryl polyglycol ether
(§2) To produce a suitable preparation of active compound, 1 part by weight of active compound is mixed with the stated amounts of solvents and emulsifier, and the concentrate is diluted with emulsifier-containing water to the desired concentration.
After 7 days, the efficacy in % is determined. 100% means that all of the beetle larvae have been killed; 0% means that none of the beetle larvae have been killed.

[2] = log P by HPLC on reversed-phase columns (C 18), EEC directive 79/831 Annex V.A8; format: physicochemical; conditions: for logP[a]: method [a]; for logP[b]: method [b]; for chromatographic logP: reversed-phase C18 HPLC column
Method in brief: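 Measured by reversed-phase C18 HPLC (LC-MS) with a linear 10→95% acetonitrile gradient. Acidic: pH 2.7, 0.1% formic acid. Neutral: pH 7.8, 0.001 M ammonium bicarbonate.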

[3] = system: southern root-knot nematode (Meloidogyne incognita); assay: Meloidogyne incognita test (MELGIN); format: in vivo; conditions: application rate 20 ppm, after 14 days, lettuce
Protocol: 5. Meloidogyne incognita Test (MELGIN) • Solvent: 125.0 parts by weight of acetone To prepare a suitable active compound preparation, 1 part by weight of active compound is mixed with the stated amount of solvent and the concentrate is diluted with water to the desired concentration. Vessels are filled with sand, active compound solution, an egg/larvae suspension of the southern root-knot nematode (Meloidogyne incognita) and lettuce seeds. The lettuce seeds germinate and the plants develop. On the roots, galls are formed. After 14 days, the nematicidal effect in % is determined by the formation of galls. 100% means that no galls have been found; 0% means that the number of galls on the treated plants corresponds to the untreated control.

[4] = system: greenhouse red spider mite (Tetranychus urticae); assay: Tetranychus urticae spray test, OP-resistant (TETRUR); format: in vivo; conditions: after 6 days, bean leaf discs
Protocol: 4. Tetranychus urticae Spray Test, OP-Resistant (TETRUR)
as §1, §2
Discs of bean leaves (Phaseolus vulgaris) which are infested by all stages of the greenhouse red spider mite (Tetranychus urticae) are sprayed with an active compound preparation of the desired concentration.
After 6 days, the efficacy in % is determined. 100% means that all of the spider mites have been killed; 0% means that none of the spider mites have been killed.

Row | logP[a] [2] | logP[b] [2] | SMILES | nematicidal effect in % (formation of galls) [3] | efficacy in % (spider mites killed) ([4]; application rate 500 g/ha) | other results
1 | 2.70 | 2.67 | N#Cc1cc(F)c(-n2cnc3sccc3c2=O)cc1SCC(F)(F)F [Compound 82] |  |  | efficacy in % (beetle larvae killed) [1]: 100%
2 |  |  | Cc1ccc(-n2cnc3sccc3c2=O)cc1[S+]([O-])CC(F)(F)F (stereo not shown) [Compound 86, 3-{4-Methyl-3-[(2,2,2-trifluoroethyl)sulphinyl]phenyl}thieno[2,3-d]pyrimidin-4(3H)-one] | 90% | 90% | chromatographic logP ([2]; pH 2.7, acidic range, pH 2.7, 0.1% aqueous formic acid / acetonitrile, read-out: log P[a]): 1.94; chromatographic logP ([2]; pH 2.7, method [a], read-out: logP[a]): 1.94; chromatographic logP ([2]; pH 7.8, method [b], read-out: logP[b]): 1.93; chromatographic logP ([2]; pH 7.8, neutral range, pH 7.8, 0.001 molar aqueous ammonium bicarbonate / acetonitrile, read-out: log P[b]): 1.93
3 | 1.52 | 1.50 | Cc1c2c(=O)n(-c3ccc(C#N)c([S+]([O-])CC(F)(F)F)c3)cnc2nn1C (racemic) [Compound 51] |  |  | efficacy in % (beetle larvae killed) [1]: 100%
4 | 2.30 | 2.24 | Cc1nn(C)c2ncn(-c3ccc(C#N)c(SCC(F)(F)F)c3)c(=O)c12 [Compound 34] |  |  | efficacy in % (beetle larvae killed) [1]: 100%
5 | 1.79 | 1.75 | N#Cc1ccc(-n2cnc3ccsc3c2=O)cc1[S+]([O-])CC(F)(F)F (stereo not shown) [Compound 105] |  |  | efficacy in % (beetle larvae killed) [1]: 100%
6 |  |  | Cc1cc(F)c(-n2cnc3nsc(C(C)(C)C)c3c2=O)cc1SCC(F)(F)F [Compound 191] |  | 100% | efficacy in % (beetle larvae killed) [1]: 100%
7 |  |  | Cc1cc(F)c(-n2cnc3csnc3c2=O)cc1[S+]([O-])CC(F)(F)F (stereo not shown) [Compound 212] | 100% | 90% | 
8 |  |  | Cc1cc(F)c(-n2nnc3c(C)nsc3c2=O)cc1[S+]([O-])CC(F)(F)F (stereo not shown) [Compound 183] |  | 90% | efficacy in % (beetle larvae killed) [1]: 100%
9 |  |  | CCc1nc2cnn(C)c2c(=O)n1-c1cc([S+]([O-])CC(F)(F)F)c(C)cc1F (stereo not shown) [Compound 147] | 100% | 100% | 
10 |  |  | Cc1cc(F)c(-n2cnc3onc(C)c3c2=O)cc1SCC(F)(F)F [Compound 194] | 100% | 90% | 
11 |  |  | Cc1cc(F)c(-n2c(C)nc3ncsc3c2=O)cc1[S+]([O-])CC(F)(F)F (stereo not shown) [Compound 188] | 90% | 100% | 
12 |  |  | Cc1cc(F)c(-n2cnc3onc(C)c3c2=O)cc1[S+]([O-])CC(F)(F)F (stereo not shown) [Compound 196] | 100% |  | efficacy in % (spider mites killed) ([4]; application rate 100 g/ha): 90%
13 |  |  | Cc1nc2cnn(C)c2c(=O)n1-c1cc([S+]([O-])CC(F)(F)F)c(Cl)cc1F (stereo not shown) [Compound 155] | 100% | 90% | 
14 |  |  | CCc1noc2ncn(-c3cc(SCC(F)(F)F)c(C)cc3F)c(=O)c12 [Compound 195] | 90% | 90% | 
15 |  |  | Cc1cc(F)c(-n2cnc3cnn(CC4CC4)c3c2=O)cc1[S+]([O-])CC(F)(F)F (stereo not shown) [Compound 169] | 100% | 100% | 
16 |  |  | CCn1ncc2nc(C)n(-c3cc([S+]([O-])CC(F)(F)F)c(C)cc3F)c(=O)c21 (stereo not shown) [Compound 164] | 100% | 100% | 
17 |  |  | CCc1nsc2ncn(-c3cc(SCC(F)(F)F)c(C)cc3F)c(=O)c12 [Compound 201] |  | 90% | efficacy in % (beetle larvae killed) [1]: 100%
18 |  |  | Cc1cc(F)c(-n2cnc3c(C)nsc3c2=O)cc1[S+]([O-])CC(F)(F)F (stereo not shown) [Compound 181] | 90% | 100% | 

Row | logP[a] [2] | logP[b] [2] | SMILES | nematicidal effect in % (formation of galls) [3] | efficacy in % (spider mites killed) ([4]; application rate 500 g/ha) | other results
19 | 2.54 | 2.52 | Cc1cc(F)c(-n2cnc3scnc3c2=O)cc1SCC(F)(F)F [Compound 60] |  |  | efficacy in % (beetle larvae killed) [1]: 100%
20 |  |  | Cc1cc(Cl)c(-n2c(C)nc3cnn(C)c3c2=O)cc1[S+]([O-])CC(F)(F)F (stereo not shown) [Compound 157] | 90% | 100% | 
21 |  |  | Cc1cc(F)c(-n2c(C)nc3cnn(CC4CC4)c3c2=O)cc1[S+]([O-])CC(F)(F)F (stereo not shown) [Compound 170] | 100% | 100% | 
22 |  |  | CCn1ncc2ncn(-c3cc([S+]([O-])CC(F)(F)F)c(C)cc3F)c(=O)c21 (stereo not shown) [Compound 163] | 90% | 100% | 
23 |  |  | Cc1cc(F)c(-n2cnc3snc(C)c3c2=O)cc1SCC(F)(F)F [Compound 202] | 90% | 90% | 
24 |  |  | Cc1cc(F)c(-n2c(C)nc3cnn(C(C)C)c3c2=O)cc1SCC(F)(F)F [Compound 162] | 90% | 100% | 
25 |  |  | Cc1cc(F)c(-n2cnc3onc(C(C)C)c3c2=O)cc1[S+]([O-])CC(F)(F)F (stereo not shown) [Compound 200] | 100% | 100% | 
26 |  |  | CCn1ncc2ncn(-c3cc(SCC(F)(F)F)c(C)cc3F)c(=O)c21 [Compound 159] | 100% | 100% | 
27 | 2.07 | 2.00 | N#Cc1ccc(-n2cnc3sccc3c2=O)cc1[S+]([O-])CC(F)(F)F (stereo not shown) [Compound 88] |  |  | efficacy in % (beetle larvae killed) [1]: 100%
28 |  |  | Cc1cc(F)c(-n2c(C)nc3snc(C)c3c2=O)cc1[S+]([O-])CC(F)(F)F (stereo not shown) [Compound 210] | 100% | 100% | 
29 |  |  | Cc1cc(F)c(-n2cnc3onc(C(F)(F)F)c3c2=O)cc1[S+]([O-])CC(F)(F)F (stereo not shown) [Compound 199] | 100% | 90% | 
30 | 2.07 | 2.03 | O=c1c2sccc2ncn1-c1ccc(Cl)c([S+]([O-])CC(F)(F)F)c1 (stereo not shown) [Compound 106] |  |  | efficacy in % (beetle larvae killed) [1]: 83%
31 |  |  | Cc1cc(F)c(-n2cnc3cnn(CC4CC4)c3c2=O)cc1SCC(F)(F)F [Compound 167] | 100% | 100% | 
32 |  |  | Cn1ncc2ncn(-c3cc(SCC(F)(F)F)c(Cl)cc3F)c(=O)c21 [Compound 148] | 100% | 100% | 
33 |  |  | Cc1nc2cnn(C)c2c(=O)n1-c1cc(SCC(F)(F)F)c(Cl)cc1F [Compound 149] | 100% | 100% | 
34 |  |  | CCc1noc2ncn(-c3cc([S+]([O-])CC(F)(F)F)c(C)cc3F)c(=O)c12 (stereo not shown) [Compound 198] | 100% | 90% | 
35 | 1.89 | 1.87 | N#Cc1ccc(-n2cnc3sccc3c2=O)cc1[S+]([O-])CC(F)(F)F (stereo not shown) [Compound 95] |  |  | efficacy in % (beetle larvae killed) [1]: 100%

Row | SMILES | logP[a] [2] | logP[b] [2] | nematicidal effect in % (formation of galls) [3] | efficacy in % (spider mites killed) ([4]; application rate 500 g/ha) | other results
36 | Cc1cc(F)c(-n2cnc3ncsc3c2=O)cc1SCC(F)(F)F [Compound 78] | 2.51 | 2.48 | 90% | 90% | 
37 | Cc1nc2c(=O)n(-c3cc(SCC(F)(F)F)c(C)cc3C)cnc2s1 [Compound 72] | 2.92 | 2.86 | 90% | 90% | 
38 | Cc1ccc(-n2cnc3nn(C)c(C)c3c2=O)cc1[S+]([O-])CC(F)(F)F (stereo not shown) [Compound 47] | 1.54 | 1.51 | 80% | 90% | 
39 | Cc1nn(C)c2ncn(-c3ccc(Cl)c([S+]([O-])CC(F)(F)F)c3)c(=O)c12 (stereo not shown) [Compound 37] | 2.01 | 1.98 | 80% | 90% | 
40 | Cc1nc2c(=O)n(-c3cc([S+]([O-])CC(F)(F)F)c(C)cc3C)cnc2s1 (stereo not shown) [Compound 75] | 1.84 | 1.81 | 80% | 90% | 
41 | CC(C)(C)c1snc2ncn(-c3ccc(Cl)c([S+]([O-])CC(F)(F)F)c3)c(=O)c12 (stereo not shown) [Compound 118] | 3.14 | 3.08 | 90% | 90% | 
